Consider 29 compounds from patent publication US20120016119A1, “NOVEL PYRROLO(2,3-d)PYRIMIDINE COMPOUND” (priority 2009, published 2012).

As usually defined, the pEC50 is the EC50 on a negative log10 scale, so that one unit is a factor of ten.

pEC50: −log10 of the molar value.

The first test addresses T1, human GPR119 (Homo sapiens, UniProt Q8TDV5).
T1 construct: expressed in transfected cells; host or cells: CHO cells (LM-3 mock cells carrying luciferase reporter pLG3-CRE6-CRE-VIP); resulting line L8-18
T1 sequence (Q8TDV5 1-335): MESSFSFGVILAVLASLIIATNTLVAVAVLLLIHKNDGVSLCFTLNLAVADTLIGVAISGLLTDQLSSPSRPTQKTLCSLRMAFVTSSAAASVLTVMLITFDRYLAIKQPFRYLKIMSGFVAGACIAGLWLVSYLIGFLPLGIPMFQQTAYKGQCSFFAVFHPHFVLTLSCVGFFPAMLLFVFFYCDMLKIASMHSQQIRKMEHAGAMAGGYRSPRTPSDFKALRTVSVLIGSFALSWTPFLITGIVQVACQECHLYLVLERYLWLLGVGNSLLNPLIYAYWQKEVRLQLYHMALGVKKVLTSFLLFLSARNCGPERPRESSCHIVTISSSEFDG
As to the kind of experiment: GPR119 agonistic activity: cAMP production in human GPR119-expressed CHO cells (HTRF cAMP kit). Type of test: cell-based. To be noted: human GPR119-expressed CHO cells (L8-18), 37° C. for 30 minutes, 500 μM IBMX. On the procedure:
The present experiment is directed to evaluate GPR119 agonistic activity (in vitro) of test compounds by adding the compounds to human GPR119-expressed CHO cells to determine cAMP production of the cells.
Human GPR119-expressed CHO cells (L8-18) were prepared by introducing an expression vector pMSF1-GPR119 (Geneticin-resistance) carrying human GPR119 genes into CHO cells (LM-3; Mock cells) wherein lusiferase expression vector pLG3-CRE6-CRE-VIP (Hygromycin B-resistance) were introduced according to the known method (The Journal of Biological Chemistry Vol. 274 (34), pp. 23940-23947).
Cryopreserved L8-18 cells were melted, and then suspended into 9-fold amounts of assay buffer and centrifuged (1000 rpm, 5 minutes) at room temperature. The supernatant was removed, and then the precipitated cells were resuspended into assay buffer (4 mL). Thereto was added assay buffer which contained IBMX (manufactured by Sigma, #17018-1G), and 7.5×10^4 cells/mL of cell suspension was prepared. The cell suspension was let stand at room temperature for 15 minutes, and then to each well of 96 half well white plate (manufactured by Corning Incorporated, #3693) were added the cell suspension (20 μL) and a solution of a test compound or AR231453 (5 μL; a total of 25 (final concentration: 1500 cells/well, 500 μM IBMX, 1% dimethylsulfoxide). The mixture was incubated at 37° C. for 30 minutes, and then to each well were added a 20-fold diluted solution (each 12.5 μL/well) of cAMP-d2 and Anti cAMP-Cryptate of HTRF cAMP kit (manufactured by Cisbio, #62AM4PEC). The mixture was stirred, and then was let stand for 1 hour under light shielding. A fluorescence intensity was measured by time-resolved fluorescence mode (Ex: 320 nm, Em: 665 nm, 620 nm) of Microplate Reader (ARVO or SpectraMax M5e). In ARVO, Ratios [Ratio=(665 nm/620 nm)×10^4)] of cAMP-d2 to Anti cAMP-Cryptate were calculated from the resulting fluorescence intensity, and cAMP concentrations of each well were calculated from cAMP standard curve prepared by the Ratios and GraphPad Prism. In SpectraMax M5e, cAMP concentrations of each well were calculated on the basis of a standard curve prepared by the resulting fluorescence intensity and Softmax Pro.
EC50 of test compounds were calculated by GraphPad Prism.
Background: Changes in cAMP serve as a functional read-out for many G protein-coupled receptors.
`CN(C)C(=O)c1ccc(Nc2ncnc3c2c(F)cn3C2CCN(C(=O)OC(C)(C)C)CC2)c(F)c1` [Example Compound 1, tert-butyl 4-[4-(4-dimethylcarbamoyl-2-fluorophenylamino)-5-fluoropyrrolo[2,3-d]pyrimidin-7-yl]piperidine-1-carboxylate] showed a pEC50 greater than 6.00.
Still for that read-out and setting: as for `CC(C)OC(=O)N1CCC(n2cc(Cl)c3c(Nc4ncc(C(=O)N(C)C)cc4Cl)ncnc32)CC1` [Example Compound 2, isopropyl 4-[5-chloro-4-(3-chloro-5-dimethylcarbamoylpyridin-2-ylamino)pyrrolo[2,3-d]pyrimidin-7-yl]piperidine-1-carboxylate], the figure is 5.52 to 6.00; as for `CC(C)(C)OC(=O)N1CCC(n2cc(F)c3c(Oc4ccc(S(C)(=O)=O)cc4F)ncnc32)CC1` [Example Compound 3, tert-butyl 4-[5-fluoro-4-(2-fluoro-4-mesylphenoxy)pyrrolo[2,3-d]pyrimidin-7-yl]piperidine-1-carboxylate], greater than 6.00.
`CC(C)(C)OC(=O)N1CCC(n2cc(F)c3c(Nc4ccc(S(C)(=O)=O)cc4Cl)ncnc32)CC1` [Example Compound 13] had a negative logarithm of the EC50 (pEC50) greater than 6.00.
Same read-out and setting: the result for `CC(C)(C)OC(=O)N1CCC(n2cc(F)c3c(Nc4ccc(-n5cncn5)cc4F)ncnc32)CC1` [Example Compound 15] reads greater than 6.00; that for `CN(C)C(=O)c1ccc(Nc2ncnc3c2c(F)cn3C2CCN(C(=O)OC(C)(C)C)CC2)c(Cl)c1` [Example Compound 17], greater than 6.00.
On the same count and under the same terms, the result for `CC(C)c1noc(N2CCC(n3cc(F)c4c(Nc5ccc(C(=O)N(C)C)cc5Cl)ncnc43)CC2)n1` [Example Compound 21] reads greater than 6.00; that for `CCc1cnc(N2CCC(n3cc(F)c4c(Nc5ccc(C(=O)N(C)C)cc5Cl)ncnc43)CC2)nc1` [Example Compound 29], greater than 6.00; that for `CN(C)C(=O)c1ccc(Nc2ncnc3c2c(F)cn3C2CCN(c3ncc(C(F)(F)F)cn3)CC2)c(F)c1` [Example Compound 54], greater than 6.00.
Still for that read-out and setting: as for `CC(C)Oc1cnc(N2CCC(n3cc(F)c4c(Nc5ccc(C(=O)N(C)C)cc5F)ncnc43)CC2)nc1` [Example Compound 56], the figure is greater than 6.00; as for `CCc1cnc(N2CCC(n3cc(F)c4c(Nc5ccc(S(C)(=O)=O)cc5F)ncnc43)CC2)nc1` [Example Compound 77], greater than 6.00; as for `CN(CCCO)C(=O)c1ccc(Nc2ncnc3c2c(F)cn3C2CCN(c3ncc(C4CC4)cn3)CC2)c(F)c1` [Example Compound 138], greater than 6.00.
The compound `CCc1cnc(N2CCC(n3cc(F)c4c(Nc5cc(F)c(C(=O)N(C)CCO)cc5F)ncnc43)CC2)nc1` [Example Compound 164] had a negative logarithm of the EC50 (pEC50) greater than 6.00.
For the compound `CN(CCCO)C(=O)c1ccc(Nc2ncnc3c2c(F)cn3C2CCN(c3noc(C(F)(F)F)n3)CC2)c(F)c1` [Example Compound 184], the pEC50 is greater than 6.00.
Still for that read-out and setting: as for `CN(CCO)C(=O)c1ccc(Nc2ncnc3c2c(F)cn3C2CCN(c3ncc(OC(F)F)cn3)CC2)c(F)c1` [Example Compound 193], the figure is greater than 6.00.

In a further test the test system is C57BL/6N male mice. Description: Inhibitory effect on increased blood glucose after oral glucose load in fasted mice. The format is in vivo. Particulars: 1 mg/kg orally, one hour before glucose load (3 g/kg, p.o.), C57BL/6N male mice fasted 21 hours. On the procedure: C57BL/6N male mice was fasted for 21 hours, and then a stratified randomization allocation was carried out by EXSUS Ver7.6 NP (Arm Systex Co., Ltd.) based on body weights (n=8). Vehicle (solvent: 0.1% Tween 80/0.5% hydroxypropyl methylcellulose) (control group) or a suspended solution of a test compound in the vehicle (test compound group) was orally administered to the mice, and a glucose load (3 g/kg, p.o.) was carried out one hour after administration of a test compound. Blood samplings from the test mice were carried out at each time point of just before administration of drug (−60 min), immediately before glucose load (0 min), 30 minutes (30 min), 60 minutes (60 min) and 120 minutes (120 min) after glucose load. Blood glucose levels at each time point were measured by glucose CII-Test Wako (manufactured by Wako Pure Chemical Industries, Ltd.), AUC (0-120 min) was calculated in each administration group on the basis of the measured value, and evaluated by time-dependent variance analysis and Student's t-Test using EXSUS Ver7.6NP (Arm Systex Co., Ltd.).
An inhibitory effect on increased blood glucose of each test compound (A ratio value of AUC (0-120 min) of the test compound group in case that AUC (0-120 min) of the control group is 100) is shown in the following Table 36.
For `O=C(c1ccc(Nc2ncnc3c2c(F)cn3C2CCN(c3noc(C(F)(F)F)n3)CC2)c(F)c1)N1CC[C@@H](O)C1` [Example Compound 178], the “Inhibitory Effect on Increased Blood Glucose (ratio value of AUC (0-120 min) of test compound group, control group = 100)” value is recorded as 88.
Still for that read-out and setting: the result for `CCc1cnc(N2CCC(n3cc(F)c4c(Nc5ccc(C(=O)N6CC[C@@H](O)C6)cc5Cl)ncnc43)CC2)nc1` [Example Compound 185] reads 89.

Staying with this test, now noted: 3 mg/kg orally, one hour before glucose load (3 g/kg, p.o.), C57BL/6N male mice fasted 21 hours.
With `CC(C)c1nc(N2CCC(n3cc(F)c4c(Nc5ccc(C(=O)N(C)CCO)cc5F)ncnc43)CC2)no1` [Example Compound 115], the “Inhibitory Effect on Increased Blood Glucose (ratio value of AUC (0-120 min) of test compound group, control group = 100)” value was found to be 92.
Still for that read-out and setting: as for `CCCc1cnc(N2CCC(n3cc(F)c4c(Nc5ccc(C(=O)N6CC[C@@H](O)C6)cc5F)ncnc43)CC2)nc1` [Example Compound 121], the figure is 82; as for `CC(C)c1cnc(N2CCC(n3cc(F)c4c(Nc5ccc(C(=O)N(C)CCO)cc5F)ncnc43)CC2)nc1` [Example Compound 124], 86; as for `O=C(c1ccc(Nc2ncnc3c2c(F)cn3C2CCN(c3ncc(C4CC4)cn3)CC2)c(F)c1)N1CC[C@@H](O)C1` [Example Compound 128], 83.
With `CN(CCO)C(=O)c1ccc(Nc2ncnc3c2c(F)cn3C2CCN(c3ncc(C4CC4)cn3)CC2)c(F)c1` [Example Compound 129], the “Inhibitory Effect on Increased Blood Glucose (ratio value of AUC (0-120 min) of test compound group, control group = 100)” value was 88.
Same read-out and setting: as for `CC(C)c1cnc(N2CCC(n3cc(F)c4c(Nc5ccc(C(=O)N6CCC[C@@H](O)C6)cc5F)ncnc43)CC2)nc1` [Example Compound 132], the figure is 90.
The same measure, in the same setting: as for `CN(CCO)C(=O)c1ccc(Nc2ncnc3c2c(F)cn3C2CCN(c3ncc(Cl)cn3)CC2)c(F)c1` [Example Compound 134], the figure is 82; as for `CC(C)Oc1cnc(N2CCC(n3cc(F)c4c(Nc5ccc(C(=O)N(C)CCCO)cc5F)ncnc43)CC2)nc1` [Example Compound 154], 86.
Still for that read-out and setting: the result for `CC(C)c1noc(N2CCC(n3cc(F)c4c(Nc5ccc(C(=O)N6CCCC6)cc5F)ncnc43)CC2)n1` [Example Compound 161] reads 87; that for `CC(C)OC(=O)N1CCC(n2cc(F)c3c(Nc4ccc(C(=O)N5CCCC5)cc4F)ncnc32)CC1` [Example Compound 163], 86.

The test is the same for the next values; noted with them: 10 mg/kg orally, one hour before glucose load (3 g/kg, p.o.), C57BL/6N male mice fasted 21 hours.
On to `CCc1cnc(N2CCC(n3cc(F)c4c(Nc5ccc(C(=O)N(C)C)cc5F)ncnc43)CC2)nc1` [Example Compound 6, 4-[7-[1-(5-ethylpyrimidin-2-yl)piperidin-4-yl]-5-fluoro-7H-pyrrolo[2,3-d]pyrimidin-4-ylamino]-3-fluoro-N,N-dimethylbenzamide], for which the “Inhibitory Effect on Increased Blood Glucose (ratio value of AUC (0-120 min) of test compound group, control group = 100)” value is 85.
As for `CCc1cnc(N2CCC(n3cc(F)c4c(Nc5ccc(C(=O)N(C)CCO)cc5F)ncnc43)CC2)nc1` [Example Compound 8, 4-[7-[1-(5-ethylpyrimidin-2-yl)piperidin-4-yl]-5-fluoro-7H-pyrrolo[2,3-d]pyrimidin-4-ylamino]-3-fluoro-N-(2-hydroxyethyl)-N-methylbenzamide], the “Inhibitory Effect on Increased Blood Glucose (ratio value of AUC (0-120 min) of test compound group, control group = 100)” value was determined as 83.
Still for that read-out and setting: the result for `CCc1cnc(N2CCC(n3cc(F)c4c(Nc5ccc(C(=O)N(C)C)cc5Cl)ncnc43)CC2)nc1` [Example Compound 29] reads 88.
